The assay has as its target T1, MabA-wt (Mycobacterium tuberculosis, UniProt P9WGT3).
T1 construct: made in house; host or cells: Escherichia coli
In kind it is binding. The following applies: spectrofluorimetry; read-out: KD for the cofactor.

The source of these data is US20100113291A1 (CENTRE NATIONAL DE LA RECHERCHE SCIENTIFIQUE, priority 2006, published 2010).

T1 sequence (P9WGT3 whole entry): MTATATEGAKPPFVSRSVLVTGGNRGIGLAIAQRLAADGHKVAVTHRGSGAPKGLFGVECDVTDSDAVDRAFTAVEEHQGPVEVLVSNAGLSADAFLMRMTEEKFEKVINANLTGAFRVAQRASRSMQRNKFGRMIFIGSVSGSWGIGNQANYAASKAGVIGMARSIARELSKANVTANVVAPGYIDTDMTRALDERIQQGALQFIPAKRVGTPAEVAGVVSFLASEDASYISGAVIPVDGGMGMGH

Usually Kd stands for a measure of binding affinity in units of concentration. On to `NC(=O)C1=CN([C@@H]2O[C@H](COP(=O)(O)OP(=O)(O)OC[C@H]3O[C@@H](n4cnc5c(N)ncnc54)[C@H](OP(=O)(O)O)[C@@H]3O)[C@@H](O)[C@H]2O)C=CC1` [NADPH], for which the Kd stood at 8.7 µM.
